In ChEMBL document CHEMBL4308839, “Recent Progress in the Discovery of Allosteric Inhibitors of Kidney-Type Glutaminase” (J Med Chem, 2018):

Biological target: T1, Glutaminase kidney isoform, mitochondrial (Homo sapiens, UniProt O94925)
T1 sequence (O94925 whole entry): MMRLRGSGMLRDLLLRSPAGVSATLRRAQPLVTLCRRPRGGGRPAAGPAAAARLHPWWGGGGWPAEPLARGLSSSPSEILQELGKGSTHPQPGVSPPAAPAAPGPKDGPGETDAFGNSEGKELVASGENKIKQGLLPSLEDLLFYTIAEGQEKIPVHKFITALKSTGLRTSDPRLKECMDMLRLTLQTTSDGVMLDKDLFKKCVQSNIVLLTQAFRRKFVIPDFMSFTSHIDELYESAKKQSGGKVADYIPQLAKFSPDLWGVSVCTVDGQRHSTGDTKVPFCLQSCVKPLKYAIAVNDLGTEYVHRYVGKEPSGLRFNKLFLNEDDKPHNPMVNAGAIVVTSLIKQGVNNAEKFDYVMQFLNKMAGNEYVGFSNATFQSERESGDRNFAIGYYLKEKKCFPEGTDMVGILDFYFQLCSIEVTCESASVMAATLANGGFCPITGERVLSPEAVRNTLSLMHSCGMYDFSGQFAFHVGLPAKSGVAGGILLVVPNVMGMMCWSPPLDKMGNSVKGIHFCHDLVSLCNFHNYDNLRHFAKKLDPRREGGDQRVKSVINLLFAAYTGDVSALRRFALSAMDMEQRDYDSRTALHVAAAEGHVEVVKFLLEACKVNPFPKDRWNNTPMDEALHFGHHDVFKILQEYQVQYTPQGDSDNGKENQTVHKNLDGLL
Assay: Inhibition of human KGA (1 to 669 residues) preincubated for 20 mins using 7 mM glutamine as substrate

IC50 | SMILES
10200 nM | O=C(Nc1nnc(CCOCCc2nnc(NC(=O)c3ccccc3)s2)s1)c1ccccc1

Biological target: T1, Glutaminase kidney isoform, mitochondrial
Assay: Inhibition of GAC (unknown origin) assessed as NADH formation using 1.8 to 13 mM glutamine as substrate preincubated for 60 mins by resorufin dye based assay

IC50 | SMILES
2000 to 10000 nM | CC(=O)Nc1ccc([C@H]2CCC[C@H](c3ccc(NC(C)=O)nn3)C2)nn1
< 100 nM | O=C(CCCC(=O)c1ccccc1)Nc1nnc(CCCCc2nnc(NC(=O)CCCC(=O)c3ccccc3)s2)s1
500 to 1000 nM | O=C(Cc1ccccn1)Nc1nnc(C[C@H]2CC[C@H](Cc3nnc(NC(=O)Cc4ccccn4)s3)CC2)s1
< 100 nM | O=C(Cc1c[nH]c2ccccc12)Nc1nnc(CCCCc2nnc(NC(=O)Cc3c[nH]c4ccccc34)s2)s1
< 100 nM | CC(=O)Nc1ccc([C@@H]2CCC[C@H](c3ccc(NC(C)=O)nn3)C2)nn1
1000 to 2000 nM | O=C(Cc1ccccn1)Nc1nnc([C@@H]2CCC[C@H](c3nnc(NC(=O)Cc4ccccn4)s3)C2)s1
500 to 1000 nM | O=C(Cc1ccccn1)Nc1nnc([C@@H]2CC[C@H](c3nnc(NC(=O)Cc4ccccn4)s3)C2)s1
1000 to 2000 nM | O=C(Cc1ccccn1)Nc1nnc(C2CCCCC(c3nnc(NC(=O)Cc4ccccn4)s3)C2)s1 (centres undefined)
< 100 nM | O=C(Cc1ccccn1)Nc1nnc([C@H]2CC[C@H](c3nnc(NC(=O)Cc4ccccn4)s3)C2)s1
< 100 nM | O=C(Cc1ccccn1)Nc1ccc([C@H]2CCC[C@H](c3ccc(NC(=O)Cc4ccccn4)nn3)C2)nn1
500 to 1000 nM | O=C(Cc1ccccn1)Nc1nnc(C[C@@H]2C[C@H]2Cc2nnc(NC(=O)Cc3ccccn3)s2)s1 (racemic)
1000 to 2000 nM | O=C(Cc1ccccn1)Nc1nnc([C@@H]2CCC[C@@H](c3nnc(NC(=O)Cc4ccccn4)s3)C2)s1
2000 to 10000 nM | O=C(Cc1ccccn1)Nc1nnc(CC2CC(Cc3nnc(NC(=O)Cc4ccccn4)s3)C2)s1 (centres undefined)
< 100 nM | O=C(Cc1ccccn1)Nc1nnc([C@@H]2CC[C@@H](c3nnc(NC(=O)Cc4ccccn4)s3)C2)s1
< 100 nM | O=C(Cc1ccccn1)Nc1nnc([C@H]2CCC[C@H](c3nnc(NC(=O)Cc4ccccn4)s3)C2)s1
2000 to 10000 nM | O=C(Cc1ccccn1)Nc1nnc(CC2CCC(Cc3nnc(NC(=O)Cc4ccccn4)s3)C2)s1 (centres undefined)
< 100 nM | O=C(Cc1ccccn1)Nc1ccc([C@@H]2CCC[C@H](c3ccc(NC(=O)Cc4ccccn4)nn3)C2)nn1
< 100 nM | O=C(Cc1ccccc1)Nc1nnc([C@H]2CCC[C@H](c3nnc(NC(=O)Cc4ccccc4)s3)C2)s1

Biological target: T1, Glutaminase kidney isoform, mitochondrial
Assay: Inhibition of GAC (unknown origin) assessed as NADH formation using 10 mM glutamine as substrate preincubated for 60 mins

IC50 | SMILES
80 nM | O=C(Cc1ccccc1)Nc1ccc(CCCCc2nnc(NC(=O)Cc3ccccc3)s2)nn1
10 nM | O=C(Cc1ccccc1)Nc1ccc(CCCCc2ccc(NC(=O)Cc3ccccc3)nn2)nn1
240 nM | CN(C)c1ccc(CC(=O)Nc2nnc(CCCCc3nnc(NC(=O)Cc4ccc(N(C)C)cc4)s3)s2)cc1

Biological target: T1, Glutaminase kidney isoform, mitochondrial
Assay: Inhibition of GAC (unknown origin) using 1 mM glutamine as substrate preincubated for 10 mins by resorufin dye based assay

IC50 | SMILES
< 100 nM | O=C(NCc1ccccn1)c1cn(CCCCc2nnc(C(=O)NCc3cccc(OC(F)(F)F)c3)s2)nn1
≤ 100 nM | O=C(Cc1ccccc1)Nc1ccn(CCCCn2cc(C(=O)NCc3cccc(OC(F)(F)F)c3)nn2)c(=O)c1
≤ 100 nM | O=C(Cc1ccccn1)Nc1ccc([C@@H]2CCN(c3nnc(C(=O)NCc4cc(C(F)(F)F)ccn4)s3)C2)nn1
≤ 100 nM | O=C(Cc1ccccc1)Nc1ccc(CCCCn2ccc(NC(=O)Cc3ccccc3)nc2=O)nn1
≤ 100 nM | O=C(Cc1ccccc1)Nc1ccn(CCC(F)Cn2cc(C(=O)NCc3cccc(OC(F)(F)F)c3)nn2)c(=O)c1 (centres undefined)
≤ 100 nM | Cc1ccc(CNC(=O)c2cn(CCCCc3cc4cc(-c5ccccc5F)[nH]c4nn3)nn2)cn1
≤ 100 nM | O=C(Cc1cccc(OC(F)(F)F)c1)Nc1ccc(C2CCN(c3nnc(NC(=O)Cc4ccccn4)s3)C2)nn1 (centres undefined)
≤ 100 nM | O=C(Cc1ccccc1)Nc1ccn(CCCCc2cc3cc(Cc4ccccc4)[nH]c3nn2)c(=O)c1
≤ 100 nM | O=C(Cc1cccc(OC(F)(F)F)c1)Nc1ccc(N2CCC(c3nnc(NC(=O)Cc4ccccn4)s3)C2)nn1 (centres undefined)
≤ 100 nM | O=C(Cc1ccccc1)Nc1ccn(CCCCc2nnc(NC(=O)Cc3ccccc3)s2)c(=O)c1
≤ 100 nM | O=C(NCc1ccccc1)c1cn(CCCCc2cc3cc(Cc4ccccc4)[nH]c3nn2)nn1
≤ 100 nM | O=C(Cc1ccccc1)Nc1ccn(CCCCc2nnc(NC(=O)Cc3ccccc3)s2)c(=O)n1
< 100 nM | O=C(Cc1cccc(OC(F)(F)F)c1)Nc1ccc(CCCCc2nnc(C(=O)NCc3ccccn3)s2)nn1
≤ 100 nM | O=C(Cc1ccccc1)Nc1ccn(CC(F)CCn2cc(C(=O)NCc3cccc(OC(F)(F)F)c3)nn2)c(=O)c1 (centres undefined)
100 to 500 nM | O=C(Cc1ccccn1)Nc1ccc([C@H]2CCN(c3nnc(C(=O)NCc4cc(C(F)(F)F)ccn4)s3)C2)nn1
≤ 100 nM | O=C(Cc1ccccc1)Nc1nnc(CCCCc2cc3cc(Cc4ccccc4)[nH]c3nn2)s1

Biological target: not listed separately
Assay: Inhibition of mouse brain glutaminase assessed as ammonia formation using glutamine as substrate by Nessler's reagent based assay

IC50 | SMILES
50 to 100 nM | O=C(Cc1cccc(OC(F)(F)F)c1)Nc1ccc(CCCCc2nnc(NC(=O)Cc3ccccn3)s2)cn1

Biological target: T2, Glutaminase kidney isoform, mitochondrial (Mus musculus, UniProt D3Z7P3)
T2 sequence (D3Z7P3 whole entry): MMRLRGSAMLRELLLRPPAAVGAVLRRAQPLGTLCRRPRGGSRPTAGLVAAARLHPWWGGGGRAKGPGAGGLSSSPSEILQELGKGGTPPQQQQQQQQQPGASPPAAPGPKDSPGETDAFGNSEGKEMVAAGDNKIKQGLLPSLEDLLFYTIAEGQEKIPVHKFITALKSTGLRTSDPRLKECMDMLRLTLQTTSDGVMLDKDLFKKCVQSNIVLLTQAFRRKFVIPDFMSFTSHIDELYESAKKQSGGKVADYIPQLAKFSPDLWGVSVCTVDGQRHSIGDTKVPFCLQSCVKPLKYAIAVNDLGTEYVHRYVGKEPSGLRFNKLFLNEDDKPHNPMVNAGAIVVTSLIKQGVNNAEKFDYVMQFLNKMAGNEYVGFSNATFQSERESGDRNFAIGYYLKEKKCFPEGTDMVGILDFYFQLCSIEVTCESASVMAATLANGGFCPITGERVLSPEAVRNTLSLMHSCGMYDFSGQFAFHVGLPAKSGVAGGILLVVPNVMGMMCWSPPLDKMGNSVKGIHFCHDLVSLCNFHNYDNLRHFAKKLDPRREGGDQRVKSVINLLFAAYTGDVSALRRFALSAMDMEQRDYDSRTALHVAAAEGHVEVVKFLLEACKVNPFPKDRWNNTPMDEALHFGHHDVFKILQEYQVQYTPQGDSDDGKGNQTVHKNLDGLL
Assay: Inhibition of mouse kidney glutaminase assessed as ammonia formation using glutamine as substrate by Nessler's reagent based assay

IC50 | SMILES
50 to 100 nM | O=C(Cc1cccc(OC(F)(F)F)c1)Nc1ccc(CCCCc2nnc(NC(=O)Cc3ccccn3)s2)cn1

Biological target: not listed separately
Assay: (§1) Inhibition of mouse brain glutaminase assessed as ammonia formation at 0.1 uM using glutamine as substrate by Nessler's reagent based assay relative to control

IC50 | SMILES
< 50 nM | O=C(Cc1ccccn1)Nc1ccc(N2CCC(c3nnc(NC(=O)Cc4cccc(OC(F)(F)F)c4)s3)CC2)nn1
1000 to 2000 nM | O=C(Cc1cccc(OC(F)(F)F)c1)Nc1ccc(N2CCC(c3nnc(NC(=O)Cc4ccccn4)s3)CC2)cn1
< 25 nM | O=C(Cc1cccc(OC(F)(F)F)c1)Nc1ccc(CC2CC(c3nnc(NC(=O)Cc4ccccn4)s3)C2)nn1 (centres undefined)
< 50 nM | O=C(Cc1cccc(OC(F)(F)F)c1)Nc1ccc(N2CCC(c3nnc(NC(=O)Cc4ccccn4)s3)CC2)nn1
50 to 200 nM | O=C(Cc1cccc(OC(F)(F)F)c1)Nc1ccc(N2CCCC(c3nnc(NC(=O)Cc4ccccn4)s3)C2)nn1 (centres undefined)

Organism: Mus musculus
Assay: as §1

inhibition | SMILES
< 25% | O=C(Cc1cccc(OC(F)(F)F)c1)Nc1cnc(CCCCc2nnc(NC(=O)Cc3ccccn3)s2)cn1

Biological target: T3, Glutaminase kidney isoform, mitochondrial (Mus musculus) (UniProt D3Z7P3)
T3 sequence (whole entry): T2 sequence (D3Z7P3 whole entry)
Assay: (§2) Inhibition of mouse kidney glutaminase assessed as ammonia formation at 0.1 uM using glutamine as substrate by Nessler's reagent based assay relative to control

inhibition | SMILES
< 25% | O=C(Cc1cccc(OC(F)(F)F)c1)Nc1cnc(CCCCc2nnc(NC(=O)Cc3ccccn3)s2)cn1

Biological target: T2, Glutaminase kidney isoform, mitochondrial
Assay: as §2

IC50 | SMILES
< 50 nM | O=C(Cc1ccccn1)Nc1ccc(N2CCC(c3nnc(NC(=O)Cc4cccc(OC(F)(F)F)c4)s3)CC2)nn1
1000 to 2000 nM | O=C(Cc1cccc(OC(F)(F)F)c1)Nc1ccc(N2CCC(c3nnc(NC(=O)Cc4ccccn4)s3)CC2)cn1
< 25 nM | O=C(Cc1cccc(OC(F)(F)F)c1)Nc1ccc(CC2CC(c3nnc(NC(=O)Cc4ccccn4)s3)C2)nn1 (centres undefined)
< 50 nM | O=C(Cc1cccc(OC(F)(F)F)c1)Nc1ccc(N2CCC(c3nnc(NC(=O)Cc4ccccn4)s3)CC2)nn1
50 to 200 nM | O=C(Cc1cccc(OC(F)(F)F)c1)Nc1ccc(N2CCCC(c3nnc(NC(=O)Cc4ccccn4)s3)C2)nn1 (centres undefined)

Biological target: T1, Glutaminase kidney isoform, mitochondrial
Assay: Inhibition of kidney-type glutaminase in human BT20 cells assessed as reduction in glutamate level
Format: cell-based

IC50 | SMILES
0.2 nM | O=C(Cc1cccc(OC(F)(F)F)c1)Nc1ccc(C[C@H]2C[C@@H](c3nnc(NC(=O)Cc4ccccn4)s3)C2)nn1
0.5 nM | Cn1ccc(CC(=O)Nc2nnc([C@H]3C[C@]4(C[C@H](c5nnc(NC(=O)Cc6ccn(C)n6)s5)C4)C3)s2)n1 (some centres undefined)
2.7 nM | Cn1ccc(CC(=O)Nc2nnc([C@H]3C[C@@]4(C[C@H](c5nnc(NC(=O)Cc6ccn(C)n6)s5)C4)C3)s2)n1 (some centres undefined)
0.1 nM | O=C(Cc1cccc(OC(F)(F)F)c1)Nc1ccc(C[C@@H]2CC[C@H](c3nnc(NC(=O)Cc4ccccn4)s3)C2)nn1

Biological target: T1, Glutaminase kidney isoform, mitochondrial
Assay: Inhibition of human KGA (63 to 669 residues) preincubated for 15 mins using 50 mM glutamine as substrate by resorufin dye based assay

IC50 | SMILES
25 nM | CO[C@H](C(=O)Nc1ccc(N2CC[C@@H](Nc3cccnn3)C2)nn1)c1cccc(OC(F)F)c1
100 nM | O=C(Nc1nnc(N[C@@H]2CCN(c3cccnn3)C2)s1)[C@@H](c1cccc(OC(F)(F)F)c1)N1CCC1
40 nM | CO[C@H](C(=O)Nc1nnc(N[C@@H]2CCN(c3cc(Cl)cnn3)C2)s1)c1ccccc1
